RP-LC retention time data for 33 compounds are collected here from the METLIN SMRT retention time set (Domingo-Almenara et al. 2019).

SMILES strings stand for the structures.

The nature of this data set: gradient 5% acetonitrile 3 min, to 50% in 2 min, to 85% in 15 min, held 3 min, 100 µL/min. The following applies: column: Zorbax Extend-C18 2.1 x 50 mm; eluents: water / acetonitrile, 0.1% formic acid. The gist of the method:
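Standards, all pure, were combined into mixtures of ~100 molecules and run at 100 μL/min on a Zorbax Extend-C18 column (2.1 × 50 mm, 1.8 μm) with water and acetonitrile, each containing 0.1% formic acid. A coupled quadrupole time-of-flight mass spectrometer operated in positive and negative ionization mode. Retention time values come from computationally picked adduct peaks, each inspected manually.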
In turn, `O=C(Nc1ccccc1)c1cc(C2CC2)on1` returned an RP-LC retention time of 912 s.

In turn, `COc1ccc(C)cc1NC(=O)Cn1nc2nc(N3CCCC(C)C3)ccn2c1=O` (stereo not drawn) registered an RP-LC retention time of 841 s.

In the case of `COc1ccccc1N1CCN(c2cc(SCC(=O)Nc3ccc(C#N)cc3)ncn2)CC1`, the RP-LC retention time is 890 s.

`CCC1=NS(=O)(=O)c2cccnc2N1c1ccc(OC)cc1` registered an RP-LC retention time of 819 s.

On to `Cc1noc(C)c1CC(=O)NCC12CCC=C1N(C)C(=O)CC2` (stereo not drawn), for which the RP-LC retention time worked out at 638 s.

In turn, `Cc1cc(Nc2nc(C(=O)N3CCN(c4ccccn4)CC3)cc3occc23)ccc1Br` yielded an RP-LC retention time of 754 s.

In turn, `CCC1(O)CCOC2(CCN(Cc3ccc(OC)c(C)c3)CC2)C1` (stereo not drawn) had an RP-LC retention time of 575 s.

Compound `CCCn1cc(CCNC(=O)Nc2cccc(C)c2C)c2cccnc21` returned an RP-LC retention time of 785 s.

For the compound `COc1ccc(F)cc1S(=O)(=O)N1C[C@@H](F)C[C@H]1C(=O)N1CCc2ccccc2C1`, the RP-LC retention time was found to be 881 s.

On to `O=C(NC1CCN(c2ccc(F)cc2)C1=O)c1ccc(F)c(Cl)c1` (stereo not drawn), for which the RP-LC retention time was 877 s.

On to `O=C(NCc1ccco1)C1CCN(C(=O)c2ncn3c2COC(c2ccccc2)C3)CC1` (stereo not drawn), for which the RP-LC retention time worked out at 699 s.

With `CC1CCN(C(=O)C2=NNc3ccccc3S2(=O)=O)CC1`, the RP-LC retention time came to 740 s.

The compound `Cc1cccc2nc(-c3c(F)cccc3Cl)c(Nc3ccc4c(c3)OCO4)n12` registered an RP-LC retention time of 697 s.

`Cc1cnc(Nc2ccc(OCCN3CCCC3)cc2)nc1Nc1cccc(S(=O)(=O)NC(C)(C)C)c1` returned an RP-LC retention time of 619 s.

Consider `CC1Oc2ccc(-c3csc(NC(=O)c4cccs4)n3)cc2N(C)C1=O` (stereo not drawn), for which the RP-LC retention time was 949 s.

In turn, `O=C(c1ccc(-c2c(-c3ccc(F)cc3)ncn2C2CCCC2)o1)N1CCN(c2ncccn2)CC1` had an RP-LC retention time of 727 s.

In turn, `O=C(Nc1nc2c(s1)CN(C(=O)c1cc(-c3ccc(F)cc3)n[nH]1)CC2)c1ccco1` returned an RP-LC retention time of 717 s.

`CC(=O)Nc1ccc(CCc2nc3ccc(C(=O)NCCC(C)C)cc3[nH]2)cc1` registered an RP-LC retention time of 630 s.

Regarding `COc1ccc(N2CCN(c3nnc(-c4nnc(C)o4)c4ccccc34)CC2)cc1`, the RP-LC retention time stood at 744 s.

The compound `CCN1CCN(C(=O)c2csc(N3CCN(c4ccc(OC)cc4)CC3)n2)CC1` registered an RP-LC retention time of 654 s.

`CCc1nnc2ccc(-c3noc(-c4ccc(Cl)cc4)n3)cn12` returned an RP-LC retention time of 1050 s.

In turn, `CCc1cccc(NC(=O)N2CCc3nc(-c4ccccc4)ncc3C2)c1` had an RP-LC retention time of 901 s.

`CCOc1ccc(CNC(=O)C2CCCN(C(=O)c3[nH]c(C)c(C(=O)OC)c3C)C2)cc1` (stereo not drawn) yielded an RP-LC retention time of 751 s.

`CS(=O)(=O)N1CCCNCCNC(=O)CC1c1ccccc1` (stereo not drawn) gave an RP-LC retention time of 572 s.

The compound `CN(CCc1noc(-c2ccc(F)cc2)n1)C(=O)COc1ccc(F)cc1` showed an RP-LC retention time of 889 s.

With `O=C(c1cc(S(=O)(=O)N2CCCC(C(=O)N3CCN(c4ccccc4)CC3)C2)c[nH]1)N1CCCC1` (stereo not drawn), the RP-LC retention time worked out at 804 s.

In turn, `Cc1nc(-c2ccc(C(=O)NCc3cccnc3)cc2)cs1` showed an RP-LC retention time of 612 s.

As to `Cc1ccc(CNS(=O)(=O)c2cc3n(c2)CCCNC3=O)o1`, the RP-LC retention time was 615 s.

Compound `CC1=C(c2ccc(C)c(C)c2)S(=O)(=O)N=C1N1CCCN(C(=O)C(C)C)CC1` came in with an RP-LC retention time of 854 s.

In the case of `Cc1ccc(CNC(=O)c2cn3c(n2)CCCC3)cc1`, the RP-LC retention time turned out to be 604 s.

With `O=C(O)CCC(=O)Nc1sc2c(c1C(=O)Nc1ccccc1)CCC2`, the RP-LC retention time is 902 s.

Compound `CCCn1c(CCNC(=O)c2ccc(F)cc2F)nc2cccnc21` returned an RP-LC retention time of 675 s.

Regarding `Fc1cccc(Cc2noc(-c3nc(-c4ccccc4)no3)n2)c1`, the RP-LC retention time came out at 1160 s.
